Reference: US20170157010A1, “METHODS AND COMPOSITIONS FOR TREATMENT OF DISORDERS ASSOCIATED WITH DAMAGE INDUCED BY FREE RADICALS” (Glycadia, Inc., priority 2015, published 2017)
Values joined by “and” are separate entries in the source; they are usually repeats but may differ in a detail not shown here. Equal values may be shown once.

Key:
[1] = Brain penetration following oral administration in rats (HPLC/MS/MS); format: in vivo; conditions: rat; sodium salt by gavage 15 and 60 mg/kg
Protocol: Rat hemi brains were obtained 1,4 and 6 hours after administration by gavage of the sodium salt of 23CPPA at doses of 15 and 60 mg/kg and were mixed with two equivalents of water and homogenized. The resulting homogenate was extracted with acetonitrile containing internal standard and concentrations of the compound were analyzed by high pressure liquid chromatography/two stage mass spectrometry (HPLC/MS/MS). Plasma samples also were collected from the same rats at these time points for measurement of plasma concentrations of the compound.

[2] = Ultraviolet absorption spectrum; format: physicochemical
Description: Ultraviolet (UV) absorption peaks of 2-(3-chlorophenylamino)phenylacetic acid at 211 and 283 nm, encompassing wavelength range of medium wave UVB (315-280 nm) and short wave UVC (280-190 nm).

[3] = ABTS radical cation free radical scavenging (bleaching of absorbance at 734 nm); format: biochemical; conditions: ABTSY+ 450 micromolar, pH 7.4
Description: A radical cation of 2,2′-azino-bis(3-ethylbenzthiazoline-6-sulfonic acid) diammonium salt (ABTS) was generated by oxidation with manganese dioxide, forming the blue-green radical cation ABTSY+ with spectrophotometric absorbance at 734 nanommeters (nm). The reaction was initiated by the addition of 23CPPA (5-40 micromolar) to ABTSY+ (450 micromolar) in phosphate buffer (75 millimolar, pH 7.4) and decay of the blue-green radical cation absorbance was monitored over time. Absorbance profiles were obtained with incubation in phosphate buffer (75 millimolar, pH 7.4) as control. The reaction of anti-oxidants with stable free radicals such as ABTSY+ that is generated from ABTS measures their free radical scavenging capacities.

Dose dependence of brain concentrations [1]: dose proportional
Ultraviolet (UV) absorption peaks [2]: 211 nm and 283 nm
Absorbance ([2]; wavelength 190 nm): 0.5
Absorbance ([2]; wavelength 195 nm): 0.75
Absorbance ([2]; wavelength 197 nm): 1.0
Absorbance ([2]; wavelength 198 nm): 1.25
Absorbance ([2]; wavelength 199 nm): 1.5
Absorbance ([2]; wavelength 205 nm): 2.0
Absorbance ([2]; wavelength 208 nm): 2.1
Absorbance ([2]; wavelength 211 nm): 2.2
Absorbance ([2]; wavelength 212 nm): 2.0
Absorbance ([2]; wavelength 220 nm): 1.25
Absorbance ([2]; wavelength 222 nm): 1.0
Absorbance ([2]; wavelength 232 nm): 0.5
Absorbance ([2]; wavelength 235 nm): 0.45
Absorbance ([2]; wavelength 239 nm): 0.43
Absorbance ([2]; wavelength 243 nm): 0.43
Absorbance ([2]; wavelength 249 nm): 0.43
Absorbance ([2]; wavelength 252 nm): 0.43
Absorbance ([2]; wavelength 256 nm): 0.43
Absorbance ([2]; wavelength 260 nm): 0.5
Absorbance ([2]; wavelength 272 nm): 0.75
Absorbance ([2]; wavelength 283 nm): 0.93
Absorbance ([2]; wavelength 291 nm): 0.75
Absorbance ([2]; wavelength 300 nm): 0.5
Absorbance ([2]; wavelength 308 nm): 0.25
Absorbance ([2]; wavelength 325 nm): 0
Compound: O=C(O)Cc1ccccc1Nc1cccc(Cl)c1 [23CPPA, 2-[(3-chlorophenyl)amino] phenylacetic acid]
Decay (% of starting absorbance) ([3]; 23CPPA 5 micromolar, 1 minute): 74 % of starting absorbance
Decay (% of starting absorbance) ([3]; 23CPPA 5 micromolar, 2 minutes): 72 % of starting absorbance
Decay (% of starting absorbance) ([3]; 23CPPA 5 micromolar, 3 minutes): 69 % of starting absorbance
Decay (% of starting absorbance) ([3]; 23CPPA 5 micromolar, 4 minutes): 67 % of starting absorbance
Decay (% of starting absorbance) ([3]; 23CPPA 5 micromolar, 5 minutes): 65 % of starting absorbance
Decay (% of starting absorbance) ([3]; 23CPPA 5 micromolar, 6 minutes): 63 % of starting absorbance
Decay (% of starting absorbance) ([3]; 23CPPA 5 micromolar, 7 minutes): 61 % of starting absorbance
Decay (% of starting absorbance) ([3]; 23CPPA 5 micromolar, 8 minutes): 60 % of starting absorbance
Decay (% of starting absorbance) ([3]; 23CPPA 5 micromolar, 9 minutes): 58 % of starting absorbance
Decay (% of starting absorbance) ([3]; 23CPPA 5 micromolar, 10 minutes): 56 % of starting absorbance
Decay (% of starting absorbance) ([3]; 23CPPA 5 micromolar, 11 minutes): 55 % of starting absorbance
Decay (% of starting absorbance) ([3]; 23CPPA 5 micromolar, 12 minutes): 53 % of starting absorbance
Decay (% of starting absorbance) ([3]; 23CPPA 5 micromolar, 13 minutes): 52 % of starting absorbance
Decay (% of starting absorbance) ([3]; 23CPPA 5 micromolar, 14 minutes): 51 % of starting absorbance
Decay (% of starting absorbance) ([3]; 23CPPA 5 micromolar, 15 minutes): 49 % of starting absorbance
Decay (% of starting absorbance) ([3]; 23CPPA 10 micromolar, 1 minute): 57 % of starting absorbance
Decay (% of starting absorbance) ([3]; 23CPPA 10 micromolar, 2 minutes): 56 % of starting absorbance
Decay (% of starting absorbance) ([3]; 23CPPA 10 micromolar, 3 minutes): 53 % of starting absorbance
Decay (% of starting absorbance) ([3]; 23CPPA 10 micromolar, 4 minutes): 52 % of starting absorbance
Decay (% of starting absorbance) ([3]; 23CPPA 10 micromolar, 5 minutes): 51 % of starting absorbance
Decay (% of starting absorbance) ([3]; 23CPPA 10 micromolar, 6 minutes): 50 % of starting absorbance
Decay (% of starting absorbance) ([3]; 23CPPA 10 micromolar, 7 minutes): 48 % of starting absorbance
Decay (% of starting absorbance) ([3]; 23CPPA 10 micromolar, 8 minutes): 47 % of starting absorbance
Decay (% of starting absorbance) ([3]; 23CPPA 10 micromolar, 9 minutes): 46 % of starting absorbance
Decay (% of starting absorbance) ([3]; 23CPPA 10 micromolar, 10 minutes): 44 % of starting absorbance
Decay (% of starting absorbance) ([3]; 23CPPA 10 micromolar, 11 minutes): 44 % of starting absorbance
Decay (% of starting absorbance) ([3]; 23CPPA 10 micromolar, 12 minutes): 43 % of starting absorbance
Decay (% of starting absorbance) ([3]; 23CPPA 10 micromolar, 13 minutes): 43 % of starting absorbance
Decay (% of starting absorbance) ([3]; 23CPPA 10 micromolar, 14 minutes): 42 % of starting absorbance
Decay (% of starting absorbance) ([3]; 23CPPA 10 micromolar, 15 minutes): 42 % of starting absorbance
Decay (% of starting absorbance) ([3]; 23CPPA 20 micromolar, 1 minute): 37 % of starting absorbance
Decay (% of starting absorbance) ([3]; 23CPPA 20 micromolar, 2 minutes): 27 % of starting absorbance
Decay (% of starting absorbance) ([3]; 23CPPA 20 micromolar, 3 minutes): 23 % of starting absorbance
Decay (% of starting absorbance) ([3]; 23CPPA 20 micromolar, 4 minutes): 20 % of starting absorbance
Decay (% of starting absorbance) ([3]; 23CPPA 20 micromolar, 5 minutes): 17 % of starting absorbance
Decay (% of starting absorbance) ([3]; 23CPPA 20 micromolar, 6 minutes): 14 % of starting absorbance
Decay (% of starting absorbance) ([3]; 23CPPA 20 micromolar, 7 minutes): 13 % of starting absorbance
Decay (% of starting absorbance) ([3]; 23CPPA 20 micromolar, 8 minutes): 12 % of starting absorbance
Decay (% of starting absorbance) ([3]; 23CPPA 20 micromolar, 9 minutes): 12 % of starting absorbance
Decay (% of starting absorbance) ([3]; 23CPPA 20 micromolar, 10 minutes): 11 % of starting absorbance
Decay (% of starting absorbance) ([3]; 23CPPA 20 micromolar, 11 minutes): 10 % of starting absorbance
Decay (% of starting absorbance) ([3]; 23CPPA 20 micromolar, 12 minutes): 10 % of starting absorbance
Decay (% of starting absorbance) ([3]; 23CPPA 20 micromolar, 13 minutes): 9 % of starting absorbance
Decay (% of starting absorbance) ([3]; 23CPPA 20 micromolar, 14 minutes): 9 % of starting absorbance
Decay (% of starting absorbance) ([3]; 23CPPA 20 micromolar, 15 minutes): 9 % of starting absorbance
Decay (% of starting absorbance) ([3]; 23CPPA 40 micromolar, 1 minute): 20 % of starting absorbance
Decay (% of starting absorbance) ([3]; 23CPPA 40 micromolar, 2 minutes): 20 % of starting absorbance
Decay (% of starting absorbance) ([3]; 23CPPA 40 micromolar, 3 minutes): 3 % of starting absorbance
Decay (% of starting absorbance) ([3]; 23CPPA 40 micromolar, 4 minutes): 1 % of starting absorbance
Decay (% of starting absorbance) ([3]; 23CPPA 40 micromolar, 5 minutes): 0 % of starting absorbance
Decay (% of starting absorbance) ([3]; 23CPPA 40 micromolar, 6 minutes): 0 % of starting absorbance
Decay (% of starting absorbance) ([3]; 23CPPA 40 micromolar, 7 minutes): 0 % of starting absorbance
Decay (% of starting absorbance) ([3]; 23CPPA 40 micromolar, 8 minutes): 0 % of starting absorbance
Decay (% of starting absorbance) ([3]; 23CPPA 40 micromolar, 9 minutes): 0 % of starting absorbance
Decay (% of starting absorbance) ([3]; 23CPPA 40 micromolar, 10 minutes): 0 % of starting absorbance
Decay (% of starting absorbance) ([3]; 23CPPA 40 micromolar, 11 minutes): 0 % of starting absorbance
Decay (% of starting absorbance) ([3]; 23CPPA 40 micromolar, 12 minutes): 0 % of starting absorbance
Decay (% of starting absorbance) ([3]; 23CPPA 40 micromolar, 13 minutes): 0 % of starting absorbance
Decay (% of starting absorbance) ([3]; 23CPPA 40 micromolar, 14 minutes): 0 % of starting absorbance
Decay (% of starting absorbance) ([3]; 23CPPA 40 micromolar, 15 minutes): 0 % of starting absorbance
